# Experimental data: paper PMC10348910, “Epigenetic reprogramming of cell cycle genes by ACK1 promotes breast cancer resistance to CDK4/6 inhibitor” (Oncogene, 2023)
# How the values were obtained:
# [1] = system: Palbociclib-resistant HCC-1395; assay: proliferation assay, trypan blue exclusion; assay type: cell-based; conditions: palbociclib-resistant HCC-1395, 96 h
# Method: (§1) A–F Breast cancer cells were treated with either vehicle or (R)-9b for 48 h; cells were harvested and processed for cell cycle analysis using propidium iodide staining, followed by flow cytometry. G BT549 and H MDA-MB-468 cells were treated with varying drug concentrations of palbociclib or (R)-9b for 96 h and the cell viability assessed using trypan blue exclusion method. I BT549, and J MDA-MB-468 cells were treated with 1 µM palbociclib or (R)-9b for 48 h and subjected to cell cycle analysis using propidium iodide staining, followed by flow-cytometry. Palbociclib-resistant MDA-MB-231 (K) and HCC-1395 (L) were generated and treated with varying drug concentrations of palbociclib or (R)-9b for 96 h and the cell viability assessed using trypan blue exclusion method.
# (§2) The mid-G1 phase is governed by CDK4 and CDK6, two serine/threonine kinases the catalytic activity of which is modulated by D-type cyclins (D1, D2, and D3). […]
# (§3) For proliferation assay, 5 × 10^4 cells were plated in 6-well plate and treated with either vehicle (DMSO) or varying concentrations of (R)-9b or palbociclib in complete media for 96 h and number of viable cells were counted by trypan blue exclusion assay. […] The cells were acquired using the BD FACSCalibur machine (BD Biosciences) and data was analyzed using FlowJo software. […] The data were analyzed using FlowJo software.
# [2] = system: Palbociclib-resistant MDA-MB-231; assay: proliferation assay, trypan blue exclusion; assay type: cell-based; conditions: palbociclib-resistant MDA-MB-231, 96 h
# Method: as §1, §2, §3
# [3] = system: luciferase expressing 4T1 cells; assay: orthotopic lung metastasis study; assay type: in vivo, female Balb/c mice; conditions: 24 mg/kg subcutaneously, 2 weeks
# Method: In addition, we performed fluorescent imaging on mice orthotopically injected with luciferase expressing 4T1 cells (5 × 10^5). Two weeks after inoculation into the mammary fat pads, mice were subcutaneously injected with vehicle (6% Captisol) or (R)-9b (24 mg/kg) five times a week for 2 weeks. Mice were then administered an intraperitoneal injection of D-luciferin, lungs were excised and imaged for metastases.
# Female Balb/c mice were orthotopically injected with luciferase expressing 4T1 cells (5 × 10^5). Two weeks after inoculation into the 5th mammary fat pads, mice were subcutaneously injected with vehicle (6% captisol) or (R)-9b (24 mg/Kg) five times a week, for 2 weeks. Mice were then intraperitoneally injected with D-luciferin, humanely euthanized, lungs were excised and assessed for metastases using both fluorescent in vivo imaging system and H&E staining.
# phospho-serine 139-γH2AX = assay: γH2AX immunocytochemistry; assay type: cell-based; conditions: breast cancer cell lines, 48h
# Method: Breast cancer cells were grown over coverslips and treated with vehicle or (R)-9b. The cells were fixed in 2% paraformaldehyde and permeabilized. The cells were stained with phospho-serine 139-γH2AX antibody (Red), phalloidin (green) and DAPI. Fluorescent microscopic images were captured. […]
# breaks in breast cancer cell lines
# Breast cancer cell lines were treated with either vehicle or (R)-9b for 48h and stained with phospho-serine 139-γH2AX antibody (Red), phalloidin (green) and DAPI. Representative images of fluorescent microscopic analysis are shown.
# CDK1, CDK2 and WEE1 mRNA = assay: qRT-PCR of CDK1, CDK2 and WEE1; assay type: cell-based; conditions: MCF-7 and MDA-MB-453; overnight
# Method: Real-time quantitative PCR analyses were performed using the ABI PRISM 7900HT Sequence Detection System (Applied Biosystems) as described earlier. Briefly, the PCR was carried out with SYBR Green PCR Master Mix (Applied Biosystems) using 2 µl of cDNA (or ChIP DNA) and the primers in a 20 µl final reaction mixture. Dissociation curves were generated for each plate to verify the integrity of the primers. Data were analyzed using SDS software version 2.2.2 and exported into an Excel spreadsheet. The 18S or Actin data were used for normalizing the gene values. The sequences for the primers are in Supplementary Table 12.
# Supplementary Figure S9: Effect of ACK1 inhibition on CDKs and WEE1.
# RNA from breast cancer cells treated with vehicle or varying concentrations of (R)-9b overnight were subjected to qRT-PCR using CDK1, CDK2 and WEE1 primers. 18S rRNA was used as housekeeping control. Data are represented as the mean ± SEM from 2 biologically independent experiments. *p<0.05, **p<0.01, ***p<0.001, unpaired two-tailed Student’s t-test.
compound,measurement,setting,value
CN1CCN(c2ccc(Nc3ncc(Cl)c(NC[C@H]4CCCO4)n3)cc2)CC1 [(R)-9b],sensitivity (cell proliferation),[1],loss of proliferation
same,sensitivity (cell proliferation),[2],loss of proliferation
same,lung tumor nodules (H&E),[3],absent
same,lung luminescence (photons/sec),[3]; five times a week,significant decrease
same,"γH2AX staining (DNA damage, double strand breaks)",phospho-serine 139-γH2AX,poor γH2AX staining
same,"CDK1 and 2, and WEE1 expression","CDK1, CDK2 and WEE1 mRNA",affected
